From patent US11312687B2, “7H-azulene [1,2,3-i,j] isoquinolin-7-one compound, single crystal and use thereof” (Hunan University of Chinese Medicine, priority 2017, dated 2022) come the findings set out here.

Read-outs that look alike come from different tables or passages of the source.

In general, viability refers to a read-out of living cells in per cent, often relative to untreated cells.

The assay deals with PC12 cells damaged by Aβ25-35. Put plainly: Protective effect on PC12 cells damaged by Aβ25-35 (MTT cell viability). The class given is cell-based, rat. The text has this:
Protective effect of 6-hydroxy-5,8-dimethoxy-7H-azulene [1,2,3-i,j] isoquinolin-7-one on PC12 cells damaged by Aβ25-35: cell seeding in the 96-well plate was the same as above, and the experiment was divided into 5 groups, 4 holes in each group.

On to `COc1cc2ccnc3c2c(c1O)-c1c-3cccc(OC)c1=O` [6-hydroxy-5,8-dimethoxy-7H-azulene [1,2,3-i,j] isoquinolin-7-one], for which the viability at 0.5 µg/mL (Rattus norvegicus, PC-12, 0.5 ug·mL^-1 sample, 30 μmol/L Aβ25-35, 24 h, MTT, x ± s, n = 4) was 85.8 ± 1.6%. Besides, the viability at 1 µg/mL was 103 ± 1.8% (Rattus norvegicus, PC-12, 1.0 ug·mL^-1 sample, 30 μmol/L Aβ25-35, 24 h, MTT, x ± s, n = 4, read-out: cell viability (%)) and > 95% (Rattus norvegicus, PC-12, concentration of 1.0 μg·mL^-1, 30 μmol/L Aβ25-35, read-out: viability of PC12 damaged cells). For the same molecule, the viability at 5 µg/mL (Rattus norvegicus, PC-12, 5.0 ug·mL^-1 sample, 30 μmol/L Aβ25-35, 24 h, MTT, x ± s, n = 4) is 77.4 ± 3.8%. In addition, the “cell viability compared to model group” value (three different concentrations (0.5, 1.0, 5.0 μg·mL^-1), P<0.01 vs model group) is recorded as “significantly increased cell viability”.
